Experimental findings from article PMC10381170, “1,3,4-Oxadiazole and 1,3,4-Thiadiazole Nortopsentin Derivatives against Pancreatic Ductal Adenocarcinoma: Synthesis, Cytotoxic Activity, and Inhibition of CDK1” (Marine Drugs, 2023) are described below.

Data set [1] deals with normal human skin fibroblasts Hs27. The data set is described as follows: SRB cytotoxicity on normal fibroblasts. Type of data set: cell-based. The method, then: The compound was tested at eight different concentrations ranging from 0.31 μM to 40 μM using the SRB assay. […] At the highest concentration tested (40 μM), only 18% growth inhibition was observed after 72 h of exposure. […] These findings provide evidence of the potential safety of compound 3b for further development as a therapeutic agent.
(§1) The cytotoxic activity of the nortopsentin derivatives 3b, 3e, 4c, 5b, and 6c on pancreatic cancer cells (BxPC-3, Panc-1, Suit-2, Capan-1, PaTu-T, primary PDAC-3 and resistant Panc-1-GR cells) was determined by the sulforhodamine B (SRB) chemosensitivity assay, as described previously. Cells were plated in 96-well flat-bottom plates at final concentrations ranging from 3000–5000 cells/well in 100 µL of medium. After a 24 h pre-incubation period, cells were treated with the compounds at nine screening concentrations (from 0.1 μM to 40 μM) in triplicate and incubated at 37 °C for 72 h. After the treatment, cells were fixed with 25 µL of cold 50% trichloroacetic acid (TCA) for each well and incubated at 4 °C for 1 h. Afterwards, plates were washed five times with demi-water and air-dried overnight. Then, the plates were stained with 50 µL of 0.4% SRB solution in 1% acetic acid for 15 min. The excess stain was rinsed off by placing the plates under running 1% acetic acid and allowed to dry at room temperature overnight. SRB staining was rinsed with 150 µL tris(hydroxymethyl)aminomethane solution pH = 8.8 (TRIS-base), and the optical density (OD) was read at 492 nm. Each assay was performed in triplicate and assays were repeated at least three times. The comparison of the average optical density of the growth in control wells with that in the sample wells allowed the estimation of the percentage of cell growth, using the following equation: % Cell Growth = (mean ODcompound − mean ODday zero plate)/(mean ODcells − mean ODday zero plate) × 100

The next data set relates to PDAC cells. The data set can be described thus: SRB antiproliferative assay, whole PDAC panel. It is filed as cell-based. The settings on record: Homo sapiens; seven PDAC models, 72 h; read-out: IC50 values, range over the PDAC cell panel. Here is the method:
as §1, with “The comparison of the average optical density of the growth in control wells with that in the sample wells allowed the estimation of the percentage of cell growth, using the following equation: % Cell Growth = (mean ODcompound − mean ODday zero plate)/(mean ODcells − mean ODday zero plate) × 100” left out

For another data set, the system named is PDAC-3 cells. The data set is described as follows: Cell-cycle analysis by PI flow cytometry, PDAC-3. Type of data set: cell-based, human. Here is the method: (§2) Cell cycle perturbation was analyzed by flow cytometry. Optimized numbers of cells (5 × 10^5 cells/mL) were seeded in 6-well plates. […] After treatment, the cells were harvested by trypsinization (250 µL trypsin-EDTA/well), incubated until the cells detached, re-suspended using the same medium used for culture, collected in specific FACS (Fluorescence Activated Cell Sorting) tubes, and washed with 1.5 mL phosphate-buffered saline (PBS). The samples were then centrifuged to form a pellet (5 min at 1500 rpm). These pellets were fixed in 1 mL of ice-cold 70% ethanol, added drop by drop during vortex, and placed in the refrigerator at 4 °C. After overnight incubation, the cells were washed twice with PBS, centrifuged (5 min at 1500 rpm), re-suspended in […] of RNase ([…]) and incubated for 30 min at 37 °C. Finally, […] of propidium iodide solution (PI, […]) was added, and the cell distribution in the various phases of the cell cycle was analyzed in a FACS Calibur instrument. Data analysis was carried out with FACSdiva software (Becton Dickinson), while cell cycle distribution was determined using Modfit software (Verity-Software, Topsham, ME, USA).

The subject of the next data set is Suit-2 cells. The data set is described as follows: Cell-cycle analysis by PI flow cytometry, Suit-2. It is filed as cell-based, human. The method, then:
as §2

For the next data set, the system named is CDK1. The data set is described as follows: CDK1 ELISA in PDAC-3. It is filed as cell-based, human. The settings on record: PDAC-3, 10 µM, 24 h, vs DMSO control, p < 0.01. Here is the method: The expression of CDK1 was detected and quantified using an Enzyme-Linked Immunosorbent Assay (ELISA, Human cyclin-dependent kinase 1 (CDK1) ELISA Kit, Catalog Number: MBS707090) according to the manufacturer’s protocol and our previous studies. Volumes of 100 µL of the standard and the sample were added for each well, and the plates were incubated for 2 h at 37 °C. Then, the liquid was removed, and 100 µL of biotin-antibody was added to each well; the plates were then incubated for 1 h at 37 °C. The medium was removed, and the plates were washed with wash buffer (200 µL). Subsequently, 100 µL of HRP-avidin was added to each well, and the plates were incubated for 1 h at 37 °C. The washing process was repeated five times. At the end, 90 µL of TMB substrate was added to each well, and the plates were incubated for 30 min at 37 °C in the dark. Finally, 50 µL of stop solution was added to each well. The optical density of each well was determined using a microplate reader set to 450 nm.

Another data set relates to Panc-1 cells. The data set is described as follows: SRB antiproliferative assay, Panc-1. It is filed as cell-based, human. Here is the method:
as §1
(§3) The results obtained were adjusted by the day zero plate (wells containing cells growing for only 24 h) and normalized by the control cells (wells with untreated cells) to obtain the rate of viable cells.

In another data set the test system is BxPC-3 cells. The data set can be described thus: Scratch wound-healing assay, BxPC-3. The settings on record: BxPC-3, 8 h, 4 × IC50, untreated = 100% wound closure. Type of data set: cell-based, human. The method, then: Cell migration was assessed using a wound-healing assay, as described previously. A total of 5 × 10^4 cells/well were seeded in a 96-well plate, to form a confluent monolayer. Scratches were created in confluent cell layers using the sterile scratch tool. The detached cells following scratch induction were removed and new medium was added to the wells. Cells were next treated with compounds 3b and 5b at a concentration of 4 × IC50. Cells growing in a complete medium were maintained at 37 °C with a supply of 5% CO2/95% air atmosphere and 100% relative humidity. The progress of wound closure was observed and documented at various time points (0th, 4th, 8th, 20th, and 24th h) using phase-contrast microscopy. Pictures of the plates were taken using the Universal Grab 6.3 software (DCILabs) from a computer connected to a Leica microscope with a JAI TMC-1327 camera.
The percentage of migration was calculated using the following equation:%Migration = (Width of the wound at T = 0 − Width of the wound at T = X)/(Width of the wound at T = 0) × 100

The subject of a further data set is PaTu-T cells. The data set is described as follows: SRB antiproliferative assay, PaTu-T. It is filed as cell-based, human. Here is the method: as §1, §3
Where [2] appears, read: Suit-2, 2 μM, 24 h (control 23%).
[3] abbreviates: Suit-2, 4-fold IC50, 24 h (control 23%).

`Cn1cc(-c2nnc(-c3cn(C)c4ncccc34)o2)c2ccccc21` [3b, 1-methyl-3-[5-(1-methyl-1H-indol-3-yl)-1,3,4-oxadiazol-2-yl]-7-azaindole] had a melting point of 239 °C. This compound also returned a growth inhibition in [1] (Hs27, 40 μM (highest concentration), 72 h) of 18%. In addition, the “cytotoxicity towards normal fibroblast cells” value in [1] (Hs27, 0.31-40 μM) was “relatively non-toxic”. In [1] (Hs27, concentrations below 10 μM, 72 h), this compound displayed a cell growth rate of around 100%. Besides, in the data set on PDAC cells, the IC50 was in the range of 1.4 to 8.1 µM. The “percentage of cells in G2-M phase” value in the data set on PDAC-3 cells (PDAC-3, 2 μM, 24 h (control 16%)) is 23%. The “percentage of cells in S phase” value in the data set with PDAC-3 cells (PDAC-3, 2 μM, 24 h (control 25%)) is given as 23%. In addition, the “percentage of cells in G0-G1 phase” value with PDAC-3 cells (PDAC-3, 2 μM, 24 h (control 59%)) stood at 54%. In addition, in the data set on PDAC-3 cells (PDAC-3, 4-fold IC50, 24 h (control 16%)), the “percentage of cells in G2-M phase” value turned out to be 52%. For the same compound, the “percentage of cells in S phase” value in the data set on PDAC-3 cells (PDAC-3, 4-fold IC50, 24 h (control 25%)) is 19%. For the same compound, the “percentage of cells in G0-G1 phase” value in the data set with PDAC-3 cells (PDAC-3, 4-fold IC50, 24 h (control 59%)) came to 29%. In the data set on Suit-2 cells (setting [2]), the “percentage of cells in G2-M phase” value was 75% and the “percentage of cells in S phase” value was 15%. The “percentage of cells in G0-G1 phase” value with Suit-2 cells (Suit-2, 2 μM, 24 h (control 54%)) is 10%. For the same compound, in the data set on Suit-2 cells (setting [3]), the “percentage of cells in G2-M phase” value is listed as 76% and the “percentage of cells in S phase” value was 14%. Further, in the data set with Suit-2 cells (Suit-2, 4-fold IC50, 24 h (control 54%)), the “percentage of cells in G0-G1 phase” value is 10%. Also, the “CDK1 expression by ELISA” value in the data set with CDK1 is given as “reduction in CDK1 expression”. Further, the IC50 in the data set on Panc-1 cells (Homo sapiens, Panc-1, 72 h, mean ± SEM, read-out: Half-maximal inhibitory concentration (IC50)) was 2.5 ± 0.55 µM. In the data set with Panc-1 cells (Panc-1, 10 μM, 72 h exposure), this compound registered a Cell growth percentage of 9.12%. Further, the “percentage of cells migrating” value in the data set on BxPC-3 cells came to 39%. The compound also yielded a Cell growth percentage in the data set with PaTu-T cells (10 μM, 72 h exposure) of 17.13%. Also, the IC50 in the data set on PaTu-T cells (Homo sapiens, 72 h, mean ± SEM, read-out: Half-maximal inhibitory concentration (IC50)) stood at 3.2 ± 0.42 µM.
